Test system: K12877-001-R-J1-PDC complex spheroid viability
Experiment: Anticancer human tumor K12877-001-R-J1-PDC patient-derived lung adenocarcinoma cell line growth inhibition [RAS]
Conditions: for IC50: curve of first compound; for viability, T/C: stronger effect = lower value
How it was run: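 Multi-cell-type spheroids: tumor cells plus HUVEC endothelial cells and mesenchymal stem cells. RAS-pathway inhibitors were combined with targeted agents, each dosed in half-log steps down from clinical Cmax, or from 10 microM when Cmax was unknown.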
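Note: spheroids exposed to agents for one week before readout.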
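Throughout, for viability, T/C: tumour cells co-cultured with HUVEC and mesenchymal stem cells in spheroids.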

`C=CC(=O)N1CCN(c2nc(OCC3CCCN3C)nc3c(F)c(-c4nc(N)cc(C)c4C(F)(F)F)c(Cl)cc23)C(C)C1` (centres undefined) + C#Cc1c(F)ccc2cc(O)cc(-c3ncc4c(N5CC6CCC(C5)N6)nc(OCC56CCCN5CC(F)C6)nc4c3F)c12 was tested. Which IC50 (second compound 0.0316 µM) did it give?
The IC50 was over 1 µM.

And the IC50 (second compound 0.1 µM)?
Its IC50 is over 1 µM.

And the IC50 (second compound 0.316 µM)?
The IC50 was over 1 µM.

What about the IC50 (second compound 1 µM) of the same molecule?
The IC50 was over 1 µM.

What about the IC50 (second compound 3.16 µM) of the same molecule?
Its IC50 is over 1 µM.

What about the IC50 (second compound 10 µM) of the same molecule?
The IC50 was over 1 µM.

And the viability, T/C (second compound 0.0316 µM, first compound 0.00316 µM)?
The viability, T/C was 97.7%.

And the viability, T/C (second compound 0.0316 µM, first compound 0.01 µM)?
The viability, T/C was 87.3%.

And the viability, T/C (second compound 0.0316 µM, first compound 0.0316 µM)?
The viability, T/C was 90.9%.

And the viability, T/C (second compound 0.0316 µM, first compound 0.1 µM)?
The viability, T/C was 79.4%.

What about the viability, T/C (second compound 0.0316 µM, first compound 0.316 µM) of the same molecule?
Its viability, T/C is 85.3%.

And the viability, T/C (second compound 0.0316 µM, first compound 1 µM)?
The viability, T/C was 72.8%.

What about the viability, T/C (second compound 0.1 µM, first compound 0.00316 µM) of the same molecule?
Its viability, T/C is 99.2%.

And the viability, T/C (second compound 0.1 µM, first compound 0.01 µM)?
The viability, T/C was 84.5%.

What about the viability, T/C (second compound 0.1 µM, first compound 0.0316 µM) of the same molecule?
The viability, T/C was 83.7%.

And the viability, T/C (second compound 0.1 µM, first compound 0.1 µM)?
Its viability, T/C is 78.3%.

What about the viability, T/C (second compound 0.1 µM, first compound 0.316 µM) of the same molecule?
The viability, T/C was 83.8%.

What about the viability, T/C (second compound 0.1 µM, first compound 1 µM) of the same molecule?
The viability, T/C was 75.5%.

What about the viability, T/C (second compound 0.316 µM, first compound 0.00316 µM) of the same molecule?
Its viability, T/C is 95.8%.

What about the viability, T/C (second compound 0.316 µM, first compound 0.01 µM) of the same molecule?
Its viability, T/C is 86.2%.

What about the viability, T/C (second compound 0.316 µM, first compound 0.0316 µM) of the same molecule?
Its viability, T/C is 83.4%.

And the viability, T/C (second compound 0.316 µM, first compound 0.1 µM)?
The viability, T/C was 89.7%.

What about the viability, T/C (second compound 0.316 µM, first compound 0.316 µM) of the same molecule?
The viability, T/C was 75%.

And the viability, T/C (second compound 0.316 µM, first compound 1 µM)?
The viability, T/C was 81.9%.

And the viability, T/C (second compound 1 µM, first compound 0.00316 µM)?
The viability, T/C was 101%.

What about the viability, T/C (second compound 1 µM, first compound 0.01 µM) of the same molecule?
Its viability, T/C is 85.3%.

And the viability, T/C (second compound 1 µM, first compound 0.0316 µM)?
The viability, T/C was 77.5%.

And the viability, T/C (second compound 1 µM, first compound 0.1 µM)?
The viability, T/C was 89.8%.

And the viability, T/C (second compound 1 µM, first compound 0.316 µM)?
The viability, T/C was 78.2%.

What about the viability, T/C (second compound 1 µM, first compound 1 µM) of the same molecule?
The viability, T/C was 77.8%.

And the viability, T/C (second compound 3.16 µM, first compound 0.00316 µM)?
The viability, T/C was 106%.

What about the viability, T/C (second compound 3.16 µM, first compound 0.01 µM) of the same molecule?
The viability, T/C was 92.2%.

And the viability, T/C (second compound 3.16 µM, first compound 0.0316 µM)?
The viability, T/C was 80.7%.

What about the viability, T/C (second compound 3.16 µM, first compound 0.1 µM) of the same molecule?
The viability, T/C was 83.1%.

What about the viability, T/C (second compound 3.16 µM, first compound 0.316 µM) of the same molecule?
The viability, T/C was 85%.

What about the viability, T/C (second compound 3.16 µM, first compound 1 µM) of the same molecule?
The viability, T/C was 73.9%.

What about the viability, T/C (second compound 10 µM, first compound 0.00316 µM) of the same molecule?
Its viability, T/C is 94.4%.

And the viability, T/C (second compound 10 µM, first compound 0.01 µM)?
Its viability, T/C is 87.3%.

And the viability, T/C (second compound 10 µM, first compound 0.0316 µM)?
The viability, T/C was 79.1%.

And the viability, T/C (second compound 10 µM, first compound 0.1 µM)?
The viability, T/C was 79.8%.

And the viability, T/C (second compound 10 µM, first compound 0.316 µM)?
Its viability, T/C is 78.2%.

And the viability, T/C (second compound 10 µM, first compound 1 µM)?
Its viability, T/C is 83.2%.

Which IC50 (second compound 0.0316 µM) does the source give for `CC1(C)CCC(Nc2ncc(C(F)(F)F)c(-c3c[nH]c4c(P(C)(C)=O)c(C#N)ccc34)n2)CN1` (centres undefined) + C#Cc1c(F)ccc2cc(O)cc(-c3ncc4c(N5CC6CCC(C5)N6)nc(OCC56CCCN5CC(F)C6)nc4c3F)c12 here?
The IC50 was 0.0555 µM.

And the IC50 (second compound 0.1 µM)?
Its IC50 is 0.0346 µM.

And the IC50 (second compound 0.316 µM)?
Its IC50 is 0.0559 µM.

And the IC50 (second compound 1 µM)?
The IC50 was 0.0503 µM.

And the IC50 (second compound 3.16 µM)?
Its IC50 is 0.0843 µM.

And the IC50 (second compound 10 µM)?
Its IC50 is 0.187 µM.

What about the viability, T/C (second compound 0.0316 µM, first compound 0.000949 µM) of the same molecule?
The viability, T/C was 93.6%.

What about the viability, T/C (second compound 0.0316 µM, first compound 0.003 µM) of the same molecule?
Its viability, T/C is 83.7%.

And the viability, T/C (second compound 0.0316 µM, first compound 0.00949 µM)?
Its viability, T/C is 89.6%.

What about the viability, T/C (second compound 0.0316 µM, first compound 0.03 µM) of the same molecule?
The viability, T/C was 65.2%.

What about the viability, T/C (second compound 0.0316 µM, first compound 0.0949 µM) of the same molecule?
Its viability, T/C is 37.2%.

What about the viability, T/C (second compound 0.0316 µM, first compound 0.3 µM) of the same molecule?
Its viability, T/C is 32%.

And the viability, T/C (second compound 0.1 µM, first compound 0.000949 µM)?
Its viability, T/C is 97.6%.

What about the viability, T/C (second compound 0.1 µM, first compound 0.003 µM) of the same molecule?
Its viability, T/C is 100%.

And the viability, T/C (second compound 0.1 µM, first compound 0.00949 µM)?
The viability, T/C was 83.8%.

What about the viability, T/C (second compound 0.1 µM, first compound 0.03 µM) of the same molecule?
The viability, T/C was 52.3%.

What about the viability, T/C (second compound 0.1 µM, first compound 0.0949 µM) of the same molecule?
Its viability, T/C is 34.5%.

What about the viability, T/C (second compound 0.1 µM, first compound 0.3 µM) of the same molecule?
Its viability, T/C is 29.1%.

And the viability, T/C (second compound 0.316 µM, first compound 0.000949 µM)?
The viability, T/C was 89.9%.

What about the viability, T/C (second compound 0.316 µM, first compound 0.003 µM) of the same molecule?
Its viability, T/C is 92%.

And the viability, T/C (second compound 0.316 µM, first compound 0.00949 µM)?
Its viability, T/C is 87%.

What about the viability, T/C (second compound 0.316 µM, first compound 0.03 µM) of the same molecule?
The viability, T/C was 63.3%.

What about the viability, T/C (second compound 0.316 µM, first compound 0.0949 µM) of the same molecule?
The viability, T/C was 39%.

What about the viability, T/C (second compound 0.316 µM, first compound 0.3 µM) of the same molecule?
The viability, T/C was 32.9%.

And the viability, T/C (second compound 1 µM, first compound 0.000949 µM)?
The viability, T/C was 96.9%.

What about the viability, T/C (second compound 1 µM, first compound 0.003 µM) of the same molecule?
Its viability, T/C is 87.5%.

And the viability, T/C (second compound 1 µM, first compound 0.00949 µM)?
The viability, T/C was 104%.

And the viability, T/C (second compound 1 µM, first compound 0.03 µM)?
The viability, T/C was 60.8%.

What about the viability, T/C (second compound 1 µM, first compound 0.0949 µM) of the same molecule?
Its viability, T/C is 40%.

What about the viability, T/C (second compound 1 µM, first compound 0.3 µM) of the same molecule?
Its viability, T/C is 33.6%.

What about the viability, T/C (second compound 3.16 µM, first compound 0.000949 µM) of the same molecule?
The viability, T/C was 100%.

And the viability, T/C (second compound 3.16 µM, first compound 0.003 µM)?
The viability, T/C was 93.6%.

What about the viability, T/C (second compound 3.16 µM, first compound 0.00949 µM) of the same molecule?
The viability, T/C was 86.6%.

And the viability, T/C (second compound 3.16 µM, first compound 0.03 µM)?
Its viability, T/C is 82.5%.

And the viability, T/C (second compound 3.16 µM, first compound 0.0949 µM)?
The viability, T/C was 45.6%.

And the viability, T/C (second compound 3.16 µM, first compound 0.3 µM)?
Its viability, T/C is 39.9%.

What about the viability, T/C (second compound 10 µM, first compound 0.000949 µM) of the same molecule?
The viability, T/C was 99.8%.

And the viability, T/C (second compound 10 µM, first compound 0.003 µM)?
The viability, T/C was 88.7%.

And the viability, T/C (second compound 10 µM, first compound 0.00949 µM)?
Its viability, T/C is 73.7%.

And the viability, T/C (second compound 10 µM, first compound 0.03 µM)?
Its viability, T/C is 72.9%.

And the viability, T/C (second compound 10 µM, first compound 0.0949 µM)?
Its viability, T/C is 56.9%.

And the viability, T/C (second compound 10 µM, first compound 0.3 µM)?
Its viability, T/C is 44.2%.

Reference: PubChem BioAssay AID2060894 (Molecular Pharmacology Branch, DTP, NCI, 2025)
